Molecules are shown by their SMILES.

This passage reports Ki and IC50 results from US10988477B2 (Merck Patent GmbH, priority 2018, dated 2021).

For one assay, the target named is GCN2 kinase (Homo sapiens, UniProt Q9P2K8). The assay is described as follows: GCN2 enzyme inhibition assay (Transcreener ADP2 fluorescence polarization). Format: biochemical. As to conditions: 280 μM ATP. Put shortly: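 FP detection of ADP (antibody plus Alexa633 tracer) after a 1 h, 25 °C kinase reaction. Enzyme 4 nM, ATP 280 μM, (RS)7 peptide 200 μM, Tris pH 7.5 buffer with MgCl2 and DTT. Percent inhibition fitted by non-linear tight-binding algorithm for IC50 and Ki(app).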
For orientation: Polarisation of emitted light reports the rotation of a fluorescent probe.

The target in assay [1] is intracellular GCN2 (phosphorylation of the GCN2 substrate eIF2α) (Homo sapiens, UniProt Q9P2K8). The assay is described as follows: GCN2 cellular inhibition assay (AlphaScreen SureFire P-eIF2α Ser51, borrelidin-treated U2OS cells). Format: cell-based. The following applies: biomarker assay, phosphorylated eIF2α Ser51 in borrelidin-treated U2OS cells. The gist of the method:
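Compound effect on GCN2 is gauged by eIF2α Ser51 phosphorylation in borrelidin-challenged U2OS cells (10 μM, 1 h). Top compound level is 40 μM final.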
(In general: Alpha assays give light when donor and acceptor beads are brought close together.)

[2] abbreviates: Enzyme activity for compounds of Formula IV, Ki(app), 25° C.
Where [3] appears, read: compounds of Formula II, 4 nM GCN2 kinase.

Chain of intracellular GCN2 (phosphorylation of the GCN2 substrate eIF2α) (Q9P2K8 whole entry): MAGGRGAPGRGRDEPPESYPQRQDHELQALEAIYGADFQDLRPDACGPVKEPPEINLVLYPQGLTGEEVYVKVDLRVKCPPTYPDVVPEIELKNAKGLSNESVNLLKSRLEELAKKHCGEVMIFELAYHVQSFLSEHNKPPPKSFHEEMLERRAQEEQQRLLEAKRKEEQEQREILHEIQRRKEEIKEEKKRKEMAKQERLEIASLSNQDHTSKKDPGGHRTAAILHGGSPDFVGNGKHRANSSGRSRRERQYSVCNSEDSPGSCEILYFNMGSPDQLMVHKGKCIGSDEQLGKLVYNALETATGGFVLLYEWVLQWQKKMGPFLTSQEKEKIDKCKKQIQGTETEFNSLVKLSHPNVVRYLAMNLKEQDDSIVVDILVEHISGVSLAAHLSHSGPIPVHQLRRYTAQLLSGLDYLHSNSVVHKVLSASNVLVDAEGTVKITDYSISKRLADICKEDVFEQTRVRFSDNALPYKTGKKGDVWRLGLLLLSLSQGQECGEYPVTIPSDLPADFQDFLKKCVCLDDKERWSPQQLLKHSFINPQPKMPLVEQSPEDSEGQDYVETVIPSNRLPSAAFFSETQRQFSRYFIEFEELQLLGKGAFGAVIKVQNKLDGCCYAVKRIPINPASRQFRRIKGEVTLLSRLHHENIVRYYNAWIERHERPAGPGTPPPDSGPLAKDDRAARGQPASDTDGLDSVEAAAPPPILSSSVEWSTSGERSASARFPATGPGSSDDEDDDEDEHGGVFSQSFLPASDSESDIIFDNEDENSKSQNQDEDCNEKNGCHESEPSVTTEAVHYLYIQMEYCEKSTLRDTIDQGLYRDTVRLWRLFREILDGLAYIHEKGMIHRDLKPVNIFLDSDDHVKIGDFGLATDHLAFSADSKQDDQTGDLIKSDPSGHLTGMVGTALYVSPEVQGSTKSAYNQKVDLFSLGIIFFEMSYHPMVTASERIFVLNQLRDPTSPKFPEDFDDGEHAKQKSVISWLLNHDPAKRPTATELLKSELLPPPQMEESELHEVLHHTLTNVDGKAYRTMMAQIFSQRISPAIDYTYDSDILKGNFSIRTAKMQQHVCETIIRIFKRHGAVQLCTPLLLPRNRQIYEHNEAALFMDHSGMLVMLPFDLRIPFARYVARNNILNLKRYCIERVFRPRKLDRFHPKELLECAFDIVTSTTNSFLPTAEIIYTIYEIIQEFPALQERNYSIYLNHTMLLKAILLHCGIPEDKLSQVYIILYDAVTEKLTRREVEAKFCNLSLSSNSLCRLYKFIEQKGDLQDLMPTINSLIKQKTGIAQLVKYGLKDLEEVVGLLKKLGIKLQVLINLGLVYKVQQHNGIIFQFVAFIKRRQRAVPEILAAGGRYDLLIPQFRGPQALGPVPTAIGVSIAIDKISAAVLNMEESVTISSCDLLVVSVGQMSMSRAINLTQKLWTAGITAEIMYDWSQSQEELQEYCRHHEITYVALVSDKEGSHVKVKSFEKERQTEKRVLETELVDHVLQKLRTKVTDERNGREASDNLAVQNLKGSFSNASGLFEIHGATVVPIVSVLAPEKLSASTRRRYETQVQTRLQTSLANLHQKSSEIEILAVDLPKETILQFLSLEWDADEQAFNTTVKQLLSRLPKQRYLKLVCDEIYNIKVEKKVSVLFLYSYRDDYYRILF
Chain of GCN2 kinase (Q9P2K8 whole entry): as above

The term IC50 denotes the concentration that inhibits the measured activity by half. High values mean weaker potency, low ones greater potency. With `FC(F)(F)c1cn2c(-c3nccc(N4CCCC(c5cocn5)C4)n3)cnc2cn1` (stereo not drawn) [IV-694, 4-(1-(2-(6-(Trifluoromethyl)imidazo[1,2-a]pyrazin-3-yl)pyrimidin-4-yl)piperidin-3-yl)oxazole], the Ki on GCN2 kinase (setting [2]) lay within 100 to 1000 nM. This compound displayed an IC50 in assay [1] (compounds of Formula IV) of over 5000 nM.
For `CC1C(c2cn[nH]c2)OCCN1c1ccnc(-c2cnc3cnc(Cl)cn23)n1` (single isomer, unassigned) [IV-245, 4-(2-(6-Chloroimidazo[1,2-a]pyrazin-3-yl)pyrimidin-4-yl)-3-methyl-2-(1H-pyrazol-4-yl)morpholine] the same measures were 100 to 1000 nM and over 5000 nM.
For `Cc1n[nH]cc1C1CCCN(c2ccnc(-c3cnc4cnc(C(F)F)cn34)n2)C1` (single isomer, unassigned) [IV-469, 6-(Difluoromethyl)-3-(4-(3-(3-methyl-1H-pyrazol-4-yl)piperidin-1-yl)pyrimidin-2-yl)imidazo[1,2-a]pyrazine] the same measures were 10 to 100 nM and over 5000 nM.
Compound `Cc1cnc(-c2cnc3ccc(C(F)F)nn23)cc1N1CCCC(CNS(C)(=O)=O)C1` (stereo not drawn) [II-53, N-((1-(2-(6-(Difluoromethyl)imidazo[1,2-b]pyridazin-3-yl)-5-methylpyridin-4-yl)piperidin-3-yl)methyl)methanesulfonamide] displayed a Ki on GCN2 kinase (setting [3]) of under 10 nM. This compound also displayed an IC50 in assay [1] (compounds of Formula II) of 500 to 5000 nM.
Consider `OC1CCCN(c2ccnc(-c3cnc4cnc(C(F)F)cn34)n2)C1` (stereo not drawn) [IV-120, 1-(2-(6-(Difluoromethyl)imidazo[1,2-a]pyrazin-3-yl)pyrimidin-4-yl)piperidin-3-ol], for which the Ki at GCN2 kinase (setting [2]) lay within 100 to 1000 nM. The half-maximal inhibitory concentration (IC50) in assay [1] (compounds of Formula IV) was over 5000 nM.
In the same order, the values of `CNS(=O)(=O)C1CCN(c2ccnc(-c3cnc4cnc(C(F)F)cn34)n2)C1` (stereo not drawn) [IV-71, 1-(2-(6-(Difluoromethyl)imidazo[1,2-a]pyrazin-3-yl)pyrimidin-4-yl)-N-methylpyrrolidine-3-sulfonamide] are 100 to 1000 nM and over 5000 nM.
In turn, `CC1CN(c2ccnc(-c3cnc4cnc(Cl)cn34)n2)CC(c2cn[nH]c2)N1` (single isomer, unassigned) [IV-213, 6-Chloro-3-(4-(3-methyl-5-(1H-pyrazol-4-yl)piperazin-1-yl)pyrimidin-2-yl)imidazo[1,2-a]pyrazine] registered a Ki at GCN2 kinase (setting [2]) of 10 to 100 nM. The concentration for half-maximal inhibition (IC50) in assay [1] (compounds of Formula IV) was 500 to 5000 nM.
Compound `O=C1NCC2CN(c3cc(-c4cnc5ccc(C(F)F)nn45)ccn3)CCN12` (stereo not drawn) [II-173, 7-(4-(6-(Difluoromethyl)imidazo[1,2-b]pyridazin-3-yl)pyridin-2-yl)hexahydroimidazo[1,5-a]pyrazin-3(2H)-one] showed a Ki on GCN2 kinase (setting [3]) of 10 to 1000 nM. Besides, the IC50 in assay [1] (compounds of Formula II) is 500 to 5000 nM.
In the same order, the values of `CC1C2COC(=O)N2CCN1c1cc(-c2cnc3ccc(C(F)F)nn23)ncn1` (stereo not drawn) [II-547, 7-(6-(6-(Difluoromethyl)imidazo[1,2-b]pyridazin-3-yl)pyrimidin-4-yl)-8-methylhexahydro-3H-oxazolo[3,4-a]pyrazin-3-one] are 10 to 1000 nM and 500 to 5000 nM.
For `C[C@H]1CN(c2cc(-c3cnc4ccc(C(F)F)nn34)ncn2)C[C@@H](CNS(C)(=O)=O)C1(F)F` [II-36, N-[[(3S,5S)-1-[6-[6-(Difluoromethyl)imidazo[1,2-b]pyridazin-3-yl]pyrimidin-4-yl]-4,4-difluoro-5-methyl-3-piperidyl]methyl]methanesulfonamide] the same measures were under 10 nM and under 500 nM.
Compound `O=S(=O)(NCC1CCCN(c2cc(-c3cnc4ccc(C(F)F)nn34)ncn2)C1)C1CC1` (stereo not drawn) [II-262, N-((1-(6-(6-(Difluoromethyl)imidazo[1,2-b]pyridazin-3-yl)pyrimidin-4-yl)piperidin-3-yl)methyl)cyclopropanesulfonamide] had a Ki on GCN2 kinase (setting [3]) of under 10 nM. The compound further yielded an IC50 in assay [1] (compounds of Formula II) of under 500 nM.
Regarding `CC1C(CS(C)(=O)=O)OCCN1c1cc(-c2cnc3ccc(C(F)F)nn23)ncn1` (stereo not drawn) [II-426, 4-(6-(6-(Difluoromethyl)imidazo[1,2-b]pyridazin-3-yl)pyrimidin-4-yl)-3-methyl-2-((methylsulfonyl)methyl)morpholine], the Ki at GCN2 kinase (setting [3]) is 10 to 1000 nM. In assay [1] (compounds of Formula II), this compound registered a half-inhibitory concentration (IC50) of 500 to 5000 nM.
For the compound `CN(C)S(=O)(=O)C1CCCN(c2ccnc(-c3cnc4cnc(C(F)F)cn34)n2)C1` (stereo not drawn) [IV-170, 1-(2-(6-(Difluoromethyl)imidazo[1,2-a]pyrazin-3-yl)pyrimidin-4-yl)-N,N-dimethylpiperidine-3-sulfonamide], the Ki at GCN2 kinase (setting [2]) was 100 to 1000 nM. In addition, the IC50 in assay [1] (compounds of Formula IV) is over 5000 nM.
For `NC(=O)c1cn2c(-c3cccc(N4CCN5C(=O)CCCC5C4)n3)cnc2cn1` (stereo not drawn) [IV-210, 3-(6-(6-Oxooctahydro-2H-pyrido[1,2-a]pyrazin-2-yl)pyridin-2-yl)imidazo[1,2-a]pyrazine-6-carboxamide] the same measures were under 10 nM and 500 to 5000 nM.
At GCN2 kinase (setting [3]), `O=S(=O)(CC1CC1)N[C@H]1CCCN(c2cc(-c3cnc4ccc(C(F)F)nn34)ncn2)C1` [II-420, (S)-1-Cyclopropyl-N-(1-(6-(6-(difluoromethyl)imidazo[1,2-b]pyridazin-3-yl)pyrimidin-4-yl)piperidin-3-yl)methanesulfonamide] yielded a Ki of 10 to 1000 nM. The IC50 in assay [1] (compounds of Formula II) is 500 to 5000 nM.
In the same order, the values of `CS(=O)(=O)NC1CCC2(CCN(c3cc(-c4cnc5ccc(C(F)F)nn45)ncn3)C2)C1` (single isomer, unassigned) [II-95, N-(2-(6-(6-(Difluoromethyl)imidazo[1,2-b]pyridazin-3-yl)pyrimidin-4-yl)-2-azaspiro[4.4]nonan-7-yl)methanesulfonamide] are 10 to 1000 nM and 500 to 5000 nM.
In the same order, the values of `CC1CC(F)(F)C(CNS(C)(=O)=O)CN1c1cc(-c2cnc3ccc(C(F)F)nn23)ncn1` (single isomer, unassigned) [II-304, N-((1-(6-(6-(Difluoromethyl)imidazo[1,2-b]pyridazin-3-yl)pyrimidin-4-yl)-4,4-difluoro-6-methylpiperidin-3-yl)methyl)methanesulfonamide] are under 10 nM and under 500 nM.
For `O=S1(=O)CCN(c2cc(-c3cnc4ccc(C(F)F)nn34)ccn2)CC1` [II-77, 4-(4-(6-(Difluoromethyl)imidazo[1,2-b]pyridazin-3-yl)pyridin-2-yl)thiomorpholine 1,1-dioxide], the Ki at GCN2 kinase (setting [3]) fell in the range of 10 to 1000 nM. This compound had an IC50 in assay [1] (compounds of Formula II) of over 5000 nM.
For `CS(=O)(=O)NCC1CCCN(c2cc(-c3cnc4ccc(C#N)nn34)ncn2)C1` (stereo not drawn) [II-692, N-[[1-[6-(6-Cyanoimidazo[1,2-b]pyridazin-3-yl)pyrimidin-4-yl]-3-piperidyl]methyl]methanesulfonamide] the same measures were 10 to 1000 nM and 500 to 5000 nM.
`CC1CN(c2ccnc(-c3cnc4cnc(C(F)(F)F)cn34)n2)C(C)C(c2cn[nH]c2)O1` (stereo not drawn) [IV-415, 3,6-Dimethyl-2-(1H-pyrazol-4-yl)-4-(2-(6-(trifluoromethyl)imidazo[1,2-a]pyrazin-3-yl)pyrimidin-4-yl)morpholine] had a Ki on GCN2 kinase (setting [2]) of under 10 nM. In addition, the IC50 in assay [1] (compounds of Formula IV) was under 500 nM.
As to `FC(F)c1ccc2ncc(-c3ccnc(N4CCC5(CCNCC5)CC4)c3)n2n1` [II-161, 3-(2-(3,9-Diazaspiro[5.5]undecan-3-yl)pyridin-4-yl)-6-(difluoromethyl)imidazo[1,2-b]pyridazine], on GCN2 kinase (setting [3]), the Ki lay in the range of 10 to 1000 nM. In assay [1] (compounds of Formula II), the IC50 was over 5000 nM.
For the compound `CC1CN(c2ccnc(-c3cnc4cnc(Br)cn34)n2)C(C)C(c2c[nH]cn2)N1` (stereo not drawn) [IV-373, 3-(4-(3-(1H-Imidazol-4-yl)-2,5-dimethylpiperazin-1-yl)pyrimidin-2-yl)-6-bromoimidazo[1,2-a]pyrazine], the Ki on GCN2 kinase (setting [2]) is under 10 nM. Further, in assay [1] (compounds of Formula IV), the half-inhibitory concentration (IC50) lay within 500 to 5000 nM.
The compound `NC(=O)C1CN(c2cc(-c3cnc4ccc(C(F)F)nn34)ccn2)CCO1` (stereo not drawn) [II-135, 4-(4-(6-(Difluoromethyl)imidazo[1,2-b]pyridazin-3-yl)pyridin-2-yl)morpholine-2-carboxamide] displayed a Ki at GCN2 kinase (setting [3]) of 10 to 1000 nM. This compound also came in with a half-inhibitory concentration (IC50) in assay [1] (compounds of Formula II) of 500 to 5000 nM.
For `CCN1CCN(c2cc(-c3cnc4ccc(C(F)F)nn34)ncn2)C(C)C1CNS(C)(=O)=O` (single isomer, unassigned) [II-543, N-((4-(6-(6-(difluoromethyl)imidazo[1,2-b]pyridazin-3-yl)pyrimidin-4-yl)-1-ethyl-3-methylpiperazin-2-yl)methyl)methanesulfonamide] the same measures were 10 to 1000 nM and 500 to 5000 nM.
In the same order, the values of `CC1C(CNS(C)(=O)=O)C(F)(F)C(C)CN1c1cc(-c2cnc3ccc(C(F)F)nn23)ncn1` (stereo not drawn) [II-476, N-((1-(6-(6-(Difluoromethyl)imidazo[1,2-b]pyridazin-3-yl)pyrimidin-4-yl)-4,4-difluoro-2,5-dimethylpiperidin-3-yl)methyl)methanesulfonamide] are 10 to 1000 nM and 500 to 5000 nM.
As for `C[C@H]1C[C@H](c2c[nH]nc2F)CN(c2nccc(-c3cnc4cnc(C(F)(F)F)cn34)n2)C1` [IV-754, 3-(2-((3R,5S)-3-(3-fluoro-1H-pyrazol-4-yl)-5-methylpiperidin-1-yl)pyrimidin-4-yl)-6-(trifluoromethyl)imidazo[1,2-a]pyrazine], the IC50 is 10 to 1000 nM against GCN2 kinase (compounds of Formula IV, 4 nM GCN2 kinase) and under 500 nM in assay [1] (compounds of Formula IV).
Compound `CC(=O)N1CCN(c2ccnc(-c3cnc4cnc(C(C)(F)F)cn34)n2)CC1` [IV-78, 1-(4-(2-(6-(1,1-Difluoroethyl)imidazo[1,2-a]pyrazin-3-yl)pyrimidin-4-yl)piperazin-1-yl)ethan-1-one] returned a Ki on GCN2 kinase (setting [2]) of 100 to 1000 nM. Besides, the IC50 in assay [1] (compounds of Formula IV) is over 5000 nM.
